# Measured values reported in patent publication US5352804A, “Isolation and structure of Halistatin 2” (Arizona Board of Regents, a body corporate, acting on …, priority 1993, dated 1994).
# Like-named read-outs stand apart in the source and are kept apart here.
# Columns and labels:
# DMS 114 = assay: NCI human tumor in vitro primary screen; format: cell-based; details: small cell lung cancer
# DMS 273 = assay: NCI human tumor in vitro primary screen; format: cell-based; details: small cell lung cancer
# [1] = read-out: Log10 GI50 (converted)
# [2] = read-out: Log10 TGI (converted)
# [3] = read-out: averaged negative log10 GI50 (converted)
compound,measurement,setting,value
C=C1CC2CCC34CC5OC6C(O3)C3OC(CCC3OC6(O)C5O4)CC(=O)OC3C(CC4OC(CCC1O2)CC(C)C4=C)OC1CC2OC4(CC2OC1C3C)CC1OC2(CC(C)C3OC5CC(C(O)CO)OC5CC3O2)CC(C)C1O4 (stereo not drawn) [halistatin 2],GI50,DMS 114; [1],0.339 nM
same,IC (TGI),DMS 114; [2],1.91 nM
same,GI50,DMS 114; [3],0.339 nM
same,GI50,DMS 273; [1],0.129 nM
same,IC (TGI),DMS 273; [2],5.5 nM
same,GI50,DMS 273; [3],0.129 nM
